Test results: ChEMBL document CHEMBL3885881, “DrugMatrix”

Organism: Rattus norvegicus
Test: DrugMatrix - Regimen: Daily Repeat
Type: toxicity, organism-based, Sprague-Dawley
Set-up: regimen Daily Repeat, gender Male, age 6-8 weeks
Conditions: in vivo, po, route oral GAVAGE, […]; for CHLORIDE / CHOLESTEROL / CREATINE PHOSPHOKINASE / CREATININE / LACTATE DEHYDROGENASE / LIPASE / PHOSPHORUS / POTASSIUM / SODIUM / TOTAL BILIRUBIN / URIC ACID / ALANINE AMINOTRANSFERASE / ALBUMIN / ALKALINE PHOSPHATASE / ASPARTATE AMINOTRANSFERASE / BLOOD UREA NITROGEN / CARBON DIOXIDE: tissue Plasma; for ABSOLUTE BASOPHIL / ABSOLUTE EOSINOPHIL / ABSOLUTE LYMPHOCYTE / ABSOLUTE MONOCYTE / ABSOLUTE SEGMENTED NEUTROPHIL / BASOPHIL / EOSINOPHIL / ERYTHROCYTE COUNT / HEMATOCRIT / HEMOGLOBIN / LEUKOCYTE COUNT / LYMPHOCYTE / MEAN CORPUSCULAR HEMOGLOBIN / MEAN CORPUSCULAR HEMOGLOBIN CONCENTRATION / MEAN CORPUSCULAR VOLUME / NEUTROPHIL / NUCLEATED RED BLOOD CELLS / PLATELET COUNT: tissue Blood
[1] = 10 mg/kg, 120 h, dose level High, time 5 day
[2] = 72 h, dose 3.5 mg/Kg, dose level Low, time 3 day
[3] = 120 h, dose 3.5 mg/Kg, dose level High, time 5 day
[4] = 120 h, dose 3.5 mg/Kg, dose level Low, time 5 day
[5] = dose 3.5 mg/Kg, dose level High, time 28 day

O=C(O)Cc1ccccc1Nc1c(Cl)cccc1Cl [DICLOFENAC]
CHLORIDE [1]: 99 MEQ/L
CHOLESTEROL [1]: 69.33 mg/dL
CREATINE PHOSPHOKINASE [1]: 210.67 u/L
CREATININE [1]: 0.1 mg/dL
LACTATE DEHYDROGENASE [1]: 77.33 u/L
LIPASE [1]: 9 u/L
PHOSPHORUS [1]: 9.63 mg/dL
POTASSIUM [1]: 5.24 MEQ/L
SODIUM [1]: 140.7 MEQ/L
TOTAL BILIRUBIN [1]: 0.1 mg/dL
URIC ACID [1]: 0.57 mg/dL
ABSOLUTE BASOPHIL [2]: 0 CELLS/uL
ABSOLUTE EOSINOPHIL [2]: 99.33 CELLS/uL
ABSOLUTE LYMPHOCYTE [2]: 11383.33 CELLS/uL
ABSOLUTE MONOCYTE [2]: 144 CELLS/uL
ABSOLUTE SEGMENTED NEUTROPHIL [2]: 540 CELLS/uL
BASOPHIL [2]: 0%
EOSINOPHIL [2]: 0.67%
ERYTHROCYTE COUNT [2]: 5.83 x10E6/uL
HEMATOCRIT [2]: 36.37%
HEMOGLOBIN [2]: 14 G/DL
LEUKOCYTE COUNT [2]: 12.17 x10E3/uL
LYMPHOCYTE [2]: 92.67%
MEAN CORPUSCULAR HEMOGLOBIN [2]: 24.03 pg
MEAN CORPUSCULAR HEMOGLOBIN CONCENTRATION [2]: 38.47 G/DL
MEAN CORPUSCULAR VOLUME [2]: 62.37 fL
NEUTROPHIL [2]: 5.33%
NUCLEATED RED BLOOD CELLS [2]: 0 /100WBC
PLATELET COUNT [2]: 741.67 x10E3/uL
ALANINE AMINOTRANSFERASE [2]: 65.67 u/L
ALBUMIN [2]: 4.03 G/DL
ALKALINE PHOSPHATASE [2]: 385.67 u/L
ASPARTATE AMINOTRANSFERASE [2]: 76.33 u/L
BLOOD UREA NITROGEN [2]: 14 mg/dL
CARBON DIOXIDE [2]: 34 mmol/L
CHLORIDE [2]: 101 MEQ/L
CHOLESTEROL [2]: 82.33 mg/dL
CREATINE PHOSPHOKINASE [2]: 146 u/L
CREATININE [2]: 0.13 mg/dL
LACTATE DEHYDROGENASE [2]: 92.67 u/L
LIPASE [2]: 12.33 u/L
PHOSPHORUS [2]: 9.37 mg/dL
POTASSIUM [2]: 5.57 MEQ/L
SODIUM [2]: 145.37 MEQ/L
TOTAL BILIRUBIN [2]: 0.2 mg/dL
URIC ACID [2]: 0.93 mg/dL
BASOPHIL [3]: 0.32%
EOSINOPHIL [3]: 0.48%
ERYTHROCYTE COUNT [3]: 7.46 x10E6/uL
HEMATOCRIT [3]: 47.98%
HEMOGLOBIN [3]: 15.12 G/DL
LEUKOCYTE COUNT [3]: 9.78 x10E3/uL
LYMPHOCYTE [3]: 81.22%
MEAN CORPUSCULAR HEMOGLOBIN [3]: 20.28 pg
MEAN CORPUSCULAR HEMOGLOBIN CONCENTRATION [3]: 31.52 G/DL
MEAN CORPUSCULAR VOLUME [3]: 64.32 fL
NEUTROPHIL [3]: 15.22%
PLATELET COUNT [3]: 1323.2 x10E3/uL
ABSOLUTE BASOPHIL [4]: 0 CELLS/uL
ABSOLUTE EOSINOPHIL [4]: 66 CELLS/uL
ABSOLUTE LYMPHOCYTE [4]: 7679.67 CELLS/uL
ABSOLUTE MONOCYTE [4]: 26 CELLS/uL
ABSOLUTE SEGMENTED NEUTROPHIL [4]: 795 CELLS/uL
BASOPHIL [4]: 0%
EOSINOPHIL [4]: 0.67%
ERYTHROCYTE COUNT [4]: 5.41 x10E6/uL
HEMATOCRIT [4]: 32.77%
HEMOGLOBIN [4]: 13.13 G/DL
LEUKOCYTE COUNT [4]: 8.57 x10E3/uL
LYMPHOCYTE [4]: 90%
MEAN CORPUSCULAR HEMOGLOBIN [4]: 24.33 pg
MEAN CORPUSCULAR HEMOGLOBIN CONCENTRATION [4]: 40.1 G/DL
MEAN CORPUSCULAR VOLUME [4]: 60.7 fL
NEUTROPHIL [4]: 9%
NUCLEATED RED BLOOD CELLS [4]: 0.33 /100WBC
PLATELET COUNT [4]: 1098.67 x10E3/uL
ALANINE AMINOTRANSFERASE [3]: 32 u/L
ALBUMIN [3]: 3.72 G/DL
ALKALINE PHOSPHATASE [3]: 340 u/L
ASPARTATE AMINOTRANSFERASE [3]: 77.6 u/L
BLOOD UREA NITROGEN [3]: 6.8 mg/dL
CHLORIDE [3]: 110 MEQ/L
CHOLESTEROL [3]: 66.4 mg/dL
CREATINE PHOSPHOKINASE [3]: 178.25 u/L
CREATININE [3]: 0.26 mg/dL
PHOSPHORUS [3]: 13.9 mg/dL
POTASSIUM [3]: 6.42 MEQ/L
SODIUM [3]: 150.8 MEQ/L
TOTAL BILIRUBIN [3]: 0.16 mg/dL
ALANINE AMINOTRANSFERASE [4]: 70.33 u/L
ALBUMIN [4]: 4 G/DL
ALKALINE PHOSPHATASE [4]: 422.67 u/L
ASPARTATE AMINOTRANSFERASE [4]: 77.67 u/L
CARBON DIOXIDE [4]: 32 mmol/L
CHLORIDE [4]: 99.5 MEQ/L
CHOLESTEROL [4]: 58.67 mg/dL
CREATININE [4]: 0.13 mg/dL
LACTATE DEHYDROGENASE [4]: 79 u/L
LIPASE [4]: 12.33 u/L
PHOSPHORUS [4]: 9.27 mg/dL
POTASSIUM [4]: 5.62 MEQ/L
SODIUM [4]: 142.7 MEQ/L
TOTAL BILIRUBIN [4]: 0.2 mg/dL
URIC ACID [4]: 0.5 mg/dL
BASOPHIL [5]: 0.51%
EOSINOPHIL [5]: 0.62%
ERYTHROCYTE COUNT [5]: 8.14 x10E6/uL
HEMATOCRIT [5]: 48.9%
HEMOGLOBIN [5]: 15.9 G/DL
LEUKOCYTE COUNT [5]: 10.63 x10E3/uL
LYMPHOCYTE [5]: 82.51%
MEAN CORPUSCULAR HEMOGLOBIN [5]: 19.56 pg
MEAN CORPUSCULAR HEMOGLOBIN CONCENTRATION [5]: 32.5 G/DL
MEAN CORPUSCULAR VOLUME [5]: 60.18 fL
NEUTROPHIL [5]: 13.48%
PLATELET COUNT [5]: 1264.5 x10E3/uL
ALANINE AMINOTRANSFERASE [5]: 29.7 u/L
ALBUMIN [5]: 3.93 G/DL
ALKALINE PHOSPHATASE [5]: 205 u/L
ASPARTATE AMINOTRANSFERASE [5]: 68.5 u/L
BLOOD UREA NITROGEN [5]: 12.1 mg/dL
CHLORIDE [5]: 109.6 MEQ/L
CHOLESTEROL [5]: 55.2 mg/dL
CREATINE PHOSPHOKINASE [5]: 206.4 u/L
CREATININE [5]: 0.51 mg/dL
PHOSPHORUS [5]: 11.24 mg/dL
POTASSIUM [5]: 6.38 MEQ/L
SODIUM [5]: 154.6 MEQ/L
TOTAL BILIRUBIN [5]: 0.21 mg/dL
